How the values were obtained:
Assay in all cases: Inhibition Assay
Conditions in all cases: 37 °C
[1] = biological target: 72 kDa type IV collagenase (Homo sapiens, UniProt P08253)
Text: (§1) Inhibition of IC50 using matrix metalloproteinase.

[2] = biological target: T1, Matrix metalloproteinase-14 [1-20,P8S] (Homo sapiens, UniProt P50281, P8S)
T1 construct: 1-20
Text: as §1

[3] = biological target: T2, Matrix metalloproteinase-25 (Homo sapiens, UniProt Q9NPA2)
T2 sequence (Q9NPA2 whole entry): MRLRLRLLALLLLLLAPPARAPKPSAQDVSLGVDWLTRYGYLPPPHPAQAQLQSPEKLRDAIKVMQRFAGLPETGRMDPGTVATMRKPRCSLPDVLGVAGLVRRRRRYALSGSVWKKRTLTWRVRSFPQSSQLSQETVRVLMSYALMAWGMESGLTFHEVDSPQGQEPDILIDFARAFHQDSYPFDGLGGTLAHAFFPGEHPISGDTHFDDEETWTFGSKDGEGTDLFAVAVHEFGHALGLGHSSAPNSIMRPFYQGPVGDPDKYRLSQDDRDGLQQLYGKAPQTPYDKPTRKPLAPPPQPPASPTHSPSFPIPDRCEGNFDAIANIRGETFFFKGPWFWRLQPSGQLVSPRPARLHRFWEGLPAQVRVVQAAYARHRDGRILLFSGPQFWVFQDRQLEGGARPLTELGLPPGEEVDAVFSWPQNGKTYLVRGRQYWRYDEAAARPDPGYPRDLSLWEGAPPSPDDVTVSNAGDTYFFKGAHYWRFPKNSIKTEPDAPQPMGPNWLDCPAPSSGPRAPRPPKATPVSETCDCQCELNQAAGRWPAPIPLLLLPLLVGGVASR
Text: as §1

[4] = biological target: Matrix metalloproteinase-9 (Homo sapiens, UniProt P14780)
Matrix metalloproteinase-9, sequence (P14780 whole entry): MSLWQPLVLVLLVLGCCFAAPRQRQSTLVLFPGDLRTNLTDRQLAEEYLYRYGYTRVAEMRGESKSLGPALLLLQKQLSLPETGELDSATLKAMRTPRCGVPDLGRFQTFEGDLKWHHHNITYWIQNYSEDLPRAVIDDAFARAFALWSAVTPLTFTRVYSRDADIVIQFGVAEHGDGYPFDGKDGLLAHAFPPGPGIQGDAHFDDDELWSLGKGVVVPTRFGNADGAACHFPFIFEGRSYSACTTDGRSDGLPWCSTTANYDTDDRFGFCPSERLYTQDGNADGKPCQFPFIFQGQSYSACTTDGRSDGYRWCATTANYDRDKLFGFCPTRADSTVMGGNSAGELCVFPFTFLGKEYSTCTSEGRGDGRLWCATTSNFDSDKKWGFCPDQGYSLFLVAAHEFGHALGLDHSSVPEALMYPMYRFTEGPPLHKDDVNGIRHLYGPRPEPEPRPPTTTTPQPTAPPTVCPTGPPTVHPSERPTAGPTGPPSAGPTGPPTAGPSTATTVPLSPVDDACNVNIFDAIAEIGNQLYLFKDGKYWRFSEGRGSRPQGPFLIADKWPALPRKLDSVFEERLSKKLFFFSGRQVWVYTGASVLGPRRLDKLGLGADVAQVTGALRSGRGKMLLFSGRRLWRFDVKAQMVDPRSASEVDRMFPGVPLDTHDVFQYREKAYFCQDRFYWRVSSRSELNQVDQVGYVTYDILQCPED
Text: as §1

72 kDa type IV collagenase, sequence (P08253 whole entry): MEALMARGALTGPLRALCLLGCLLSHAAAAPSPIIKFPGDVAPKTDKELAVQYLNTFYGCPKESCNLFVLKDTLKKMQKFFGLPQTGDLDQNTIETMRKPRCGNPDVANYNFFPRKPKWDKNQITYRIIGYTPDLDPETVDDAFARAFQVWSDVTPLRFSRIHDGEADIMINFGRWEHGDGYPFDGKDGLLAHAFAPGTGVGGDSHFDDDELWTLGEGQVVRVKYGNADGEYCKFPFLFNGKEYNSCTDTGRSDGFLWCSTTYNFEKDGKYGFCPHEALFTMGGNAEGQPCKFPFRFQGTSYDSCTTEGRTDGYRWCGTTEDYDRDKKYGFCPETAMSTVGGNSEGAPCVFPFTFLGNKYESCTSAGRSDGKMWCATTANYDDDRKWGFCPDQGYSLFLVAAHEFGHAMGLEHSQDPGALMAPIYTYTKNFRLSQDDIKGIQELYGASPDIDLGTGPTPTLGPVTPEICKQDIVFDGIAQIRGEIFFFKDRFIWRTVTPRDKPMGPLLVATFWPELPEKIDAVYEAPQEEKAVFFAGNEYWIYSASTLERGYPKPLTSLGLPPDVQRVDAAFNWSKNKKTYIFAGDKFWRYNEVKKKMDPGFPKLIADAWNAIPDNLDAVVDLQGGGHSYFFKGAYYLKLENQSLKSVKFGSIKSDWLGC

SMILES | IC50 [1] | IC50 [2] | IC50 [3] | IC50 [4]
O=C(CCS(=O)(=O)c1ccccc1)NO [BI-92G11] | 1.9 µM | 10.9 µM | 0.9 µM | > 50 µM
CCOc1ccc(-c2ccccc2C(=O)NO)cc1 [BI-102C8] | > 100 µM | > 100 µM | 2.5 µM | > 100 µM

From BindingDB's records for doi:10.1074/jbc.M110.107094 (Sanford-Burnham Medical Research Institute, 2010)
